Experimental data: patent US20130324437A1, “METHOD FOR IDENTIFYING ANTIMICROBIAL COMPOUNDS AND DETERMINING ANTIBIOTIC SENSITIVITY” (THE REGENTS OF THE UNIVERSITY OF CALIFORNIA, priority 2010, published 2013)
Values after ≈ are worked out from the molar mass of the structure shown. Where two headings read alike, the source gives them in different places.

How the values were obtained:
Bacillus subtilis = experiment: Cytological profiling of Bacillus subtilis (FM 4-64, DAPI, Sytox Green); format: cell-based; conditions: FIG. 8
Procedure: (§1) FIG. 8. Affect of various treatments on Bacillus subtilis cell architecture and permeability. (A-J) Cytological profiling. Cells were stained with the membrane stain FM 4-64 (red) and the membrane impermeable nucleotide stains Sytox Green (green) and DAPI (blue) and visualized 2 hours after treatment unless otherwise noted. […] Cells imaged after 1 hr of treatment. […] Cells were imaged after 8 hours. (K) Cell permeability as assessed by Sytox staining intensity per pixel.
The effects of these drugs on the Gram positive bacterium Bacillus subtilis was determined using the fluorescent membrane stain FM 4-64 and two nucleotide stains that are membrane impermeable (DAPI and Sytox).

[1] = tested on: proton motive force (PMF); experiment: DiSC3(5) fluorometer assay of proton motive force; format: cell-based, Bacillus subtilis; conditions: vancomycin at the MIC
Procedure: as §1
The fluorescent stain DiSC3(5) was used in a fluorometer assay, in which cells with a decreased PMF show increased fluorescence.

[2] = tested on: Escherichia coli and Bacillus subtilis cells; experiment: Summary of cytological profiles by mechanism of action (FIG. 1); format: cell-based; conditions: example compound of the MOA class
Procedure: FIG. 1. Summary of cytological profiles for drugs with the indicated mechanisms of action (MOA).
To determine if different classes of antimicrobials can be distinguished based on cytological parameters, comparative cytological analysis of Escherichia coli and Bacillus subtilis cells treated with several different classes of antibiotics was performed. […] Also included were nonspecific inhibitors such as bleach, ethidium bromide, and sodium docecyl sulfate. […] This analysis is expanded to molecules with unknown MOAs as described below.

E. coli imp strain = experiment: Cytological profiling of E. coli imp strain (DAPI staining intensity); format: cell-based, Escherichia coli; conditions: 10 minute exposure, FIG. 10
Procedure: FIG. 10. Measurements of DAPI staining for single cells after 10 minute exposure to nisin, Spirohexenolide A, chlorothricin, and DMSO. […] Cells treated with nisin, SpiroA, and chlorothricin show increased fluorescence comparted to untreated control.
Cytological profiling was used to determine the MOA of spirohexenolide A. A culture of the E. coli imp strain was grown in LB media at 30° C. and spirohexenolide A was added at various concentrations. After either 10 minutes or two hours, samples were stained with FM 4-64 and DAPI for examination with a fluorescence microscope. The cytological profile of spirohexenolide A was identical to that for nisin, a compound that forms channels in the membrane. Chromosome stains such as DAPI and Sytox green are partially excluded from the cell by the cytoplasmic membrane in untreated cells, but are taken up in cells treated with permeablizers such as nisin.

[3] = tested on: gram positive bacteria and the E. coli imp mutant; conditions: Kang et al. (2009); Pache & Champman (1972); cited from earlier work
E. coli strain JP750 [4] = format: cell-based, Escherichia coli; conditions: for cell length: cell elongation, FIG. 2 / FIG. 3; for chromosome morphology: 2 hours treatment; for chromosomes exhibiting doughnut or ring shape: lethal dose (MIC), 2 hours, n=50
Procedure: The dose-dependent cytological profiles for the various classes of antibiotics was determined. In general, a series of cultures of the appropriate strain were grown in LB at 30° C. until the cultures reached a density of approximately 2×10^8 cells/ml, at which point the compound of interest was added so that the final concentrations ranged from 0 to 200 μg/ml. For each compound, samples representing ⅕×, 1× and 5× the MIC were examined. Samples were taken at various times after addition of drug (ranging from 0.2 to 3 hours). The cells were stained with FM 4-64 (1 μg/ml) to visualize the cell membranes and DAPI (5 μg/ml) to visualize the chromosome (Pogliano et al. (1999) Mol. Microbiol. 31:1149).
Images of each stain and any fluorescently-tagged fusion protein present in the strain were then captured using a high resolution microscope. Cell length and width, chromosome length and shape, distance of the chromosome from each cell pole, the number of chromosomes per cell, and the presence and distribution of GFP (or GFP fusions) present within the cells were measured.
Strain JP750 expresses a SeqA-GFP fusion from an IPTG dependent promoter. SeqA-GFP forms fluorescent foci that indicate the position of DNA replication forks/hemimethylated DNA within the cell (Brendler et al. (2000) EMBO 19:6249). After two hours of growth, samples were taken, stained with FM 4-64 (1 μg/ml) to visualize the cell membranes, and DAPI (5 μg/ml) to visualize the chromosome.

E. coli strain JP750 [5] = conditions: Pogliano et al. 1997; cited from earlier work
[6] = tested on: E. coli strains JP750 or W3110; experiment: Determination of MIC (growth in LB with antibiotic); format: cell-based; conditions: Escherichia coli, read-out: minimal inhibitory concentration (MIC)
Procedure: The minimal inhibitory concentration (MIC) of each antibiotic was determined for E. coli strains JP750 or W3110, and for Bacillus subtilis strain PY79. A test tube containing 5 ml of LB was inoculated with a single colony and grown until the culture reached a density of approximately 2×10^8 cells/ml. Small inoculums (20 μl) of this culture were then diluted into LB containing various concentrations of antibiotic ranging from 0 to 200 μg/ml and the cultures were incubated overnight at 30° C. The MIC was the lowest concentration that blocked growth.

E. coli = experiment: Growth curve (optical density at 600 nm); format: cell-based, Escherichia coli

Molecule: N#CC(C#N)=NNc1cccc(Cl)c1 [CCCP]
- cytological phenotype (membrane, chromosome, permeability) (Bacillus subtilis): cells with uneven membrane staining and decondensed chromosomes
- effect on proton motive force / membrane polarization [1]: rapidly depolarizes the membranes

Molecule: C[C@@H](O)[C@H](NC(=O)c1ccc(C#Cc2ccc(CN3CCOCC3)cc2)cc1)C(=O)NO [CHIR-090]
- cytological profile (FIG. 1 summary) [2]: produces chains of cells with increased permeability

Molecule: CC1=C[C@]2(C)/C=C(C)/C=C/C[C@@H](O)/C=C3C=C/C(=C4\C(=O)O[C@]2(C[C@@H]1C)C4=O)OC/3 [Spirohexenolide A]
- DAPI staining intensity relative to untreated (WT) cells (E. coli imp strain): 5 ×
- antibacterial spectrum [3]: active against gram positive bacteria and the E. coli imp mutant

Molecule: [Na+].[O-]Cl [bleach]
- cytological profile (FIG. 1 summary) [2]: causes the chromosome to condense into a dramatic ribbon-like structure

Molecule: CC1=C(C(=O)O)N2C(=O)[C@@H](NC(=O)[C@H](N)c3ccccc3)[C@H]2SC1 [cephalexin]
- cell length (E. coli strain JP750 [4]): elongated
- cytological profile (FIG. 1 summary) [2]: produces elongated cells with multiple chromosomes
- chromosome shape (E. coli strain JP750 [5]): chromosome shape is not affected

Molecule: O=C(N[C@H](CO)[C@H](O)c1ccc([N+](=O)[O-])cc1)C(Cl)Cl [chloramphenicol]
- MIC ([6]; LB, overnight at 30° C.): 5 µg/mL (≈ 15.5 µM)
- chromosome morphology (E. coli strain JP750 [4]): caused chromosomes to form rings
- distance between edge of chromosome and cell pole (E. coli strain JP750 [4]; lethal dose (5 μg/ml), two hours): dramatic increase
- chromosomes exhibiting doughnut or ring shape (E. coli strain JP750 [4]): 98%
- cytological profile (FIG. 1 summary) [2]: leads to a toroidal chromosome and wider cells

Molecule: COc1ccc(Cl)c(C)c1C(=O)O[C@@H]1C[C@H](O[C@H]2[C@H](O)C[C@H](O[C@H]3CCC[C@@H]4[C@@H]3C=C[C@H]3CCCC/C=C/[C@@H]5C=C(C(=O)O)[C@H](C)C[C@]56OC(=O)C(=C6O)OC(=O)[C@@]43C)O[C@@H]2C)O[C@H](C)[C@H]1O [chlorothricin]
- DAPI staining (E. coli imp strain): increased DAPI staining
- antibacterial spectrum [3]: active against gram positive bacteria and the E. coli imp mutant

Molecule: NC[C@H]1O[C@H](O[C@H]2[C@H](O)[C@@H](O[C@H]3O[C@H](CO)[C@@H](O)[C@H](N)[C@H]3O)[C@H](N)C[C@@H]2N)[C@H](O)[C@@H](O)[C@@H]1O [kanamycin]
- MIC ([6]; LB, overnight at 30° C.): 50 µg/mL (≈ 103 µM)

Molecule: CCn1cc(C(=O)O)c(=O)c2ccc(C)nc21 [nalidixic acid]
- MIC [6]: 0.5 µg/mL (≈ 2.15 µM)
- chromosome morphology (E. coli strain JP750 [4]): elongated chromosomes
- SeqA-GFP foci distribution (E. coli strain JP750 [4]; LB, 30° C., FIG. 2): highly elongated chromosomes in which the SeqA foci are clustered together
- cell length (E. coli strain JP750 [4]): caused elongation
- effect on growth (optical density at 600 nm) (E. coli; five-fold below the MIC): no detectable effect on growth
- effect on growth (E. coli; lethal dose (1×MIC)): reduced growth
- cytological profile (FIG. 1 summary) [2]: produces elongated cells with centrally localized and fragmented DNA

Molecule: CC1(C)S[C@@H]2[C@H](NC(=O)Cc3ccccc3)C(=O)N2[C@H]1C(=O)O [penicillin G]
- cytological phenotype (membrane, chromosome, permeability) (Bacillus subtilis): cells with condensed chromosomes that lyse at various times
- cytological profile (FIG. 1 summary) [2]: causes chromosome condensation and lysis

Molecule: [H]/N=C(/N)N[C@H]1[C@H](O)[C@@H](O)[C@H](O[C@@H]2O[C@@H](C)[C@](O)(C=O)[C@H]2O[C@@H]2O[C@@H](CO)[C@H](O)[C@@H](O)[C@@H]2NC)[C@@H](N/C(N)=N\[H])[C@@H]1O [streptomycin]
- MIC ([6]; LB, overnight at 30° C.): 50 µg/mL (≈ 86 µM)
- chromosome morphology (E. coli strain JP750 [4]): condensed chromosomes but not ring formation

Molecule: CN(C)[C@@H]1C(O)=C(C(N)=O)C(=O)[C@@]2(O)C(O)=C3C(=O)c4c(O)cccc4[C@@](C)(O)[C@H]3C[C@@H]12 [tetracycline]
- MIC ([6]; LB, overnight at 30° C.): 20 µg/mL (≈ 45 µM)
- chromosomes exhibiting doughnut or ring shape (E. coli strain JP750 [4]): 98%

Molecule: COc1cc(Cc2cnc(N)nc2N)cc(OC)c1OC [trimethoprim]
- cytological profile (FIG. 1 summary) [2]: condense the chromosome without affecting cell width

Molecule: CN[C@H](CC(C)C)C(=O)N[C@H]1C(=O)N[C@@H](CC(N)=O)C(=O)N[C@H]2C(=O)N[C@H]3C(=O)N[C@H](C(=O)N[C@H](C(=O)O)c4cc(O)cc(O)c4-c4cc3ccc4O)[C@H](O)c3ccc(c(Cl)c3)Oc3cc2cc(c3O[C@@H]2O[C@H](CO)[C@@H](O)[C@H](O)[C@H]2O[C@H]2C[C@](C)(N)[C@H](O)[C@H](C)O2)Oc2ccc(cc2Cl)[C@H]1O [vancomycin]
- cytological phenotype (membrane, chromosome, permeability) (Bacillus subtilis): internal membrane vesicles and increased DAPI and Sytox permeability in a subset of the cells
- effect on proton motive force / membrane polarization [1]: no effect on PMF
- cytological profile (FIG. 1 summary) [2]: produces large internal membrane vesicles

Molecule: nisin
- cytological phenotype (membrane, chromosome, permeability) (Bacillus subtilis): increased DAPI and Sytox staining
- effect on proton motive force / membrane polarization [1]: rapidly collapse the proton motive force (PMF)
- DAPI staining intensity relative to untreated (WT) cells (E. coli imp strain): 5 ×
- cytological profile (FIG. 1 summary) [2]: show increased permeability at early times

Molecule: polymyxin B
- cytological profile compared with reference (E. coli strain JP750 [4]; two hours at the MIC): cytological profile similar to CHIR-090
